Results reported in the SangsterLogP compilation.

How the values were obtained:
[1] = not given; remark: listed apart in the source

Row | SMILES | logP | logP [1]
1 | O=C1Nc2ccccc2C1c1ccccc1 (stereo unspecified) | 2.59 | –
2 | c1ccc(-c2ncc3ccccc3n2)cc1 | 3.42 | –
3 | O=C1CCc2ccccc2N1 | 1.34 | –
4 | c1ccc(-c2cnc3ccccc3n2)cc1 | 3.48 | –
5 | O=C1CC(c2ccccc2)c2ccccc2N1 (stereo unspecified) | 2.79 | –
6 | c1ccc(C2CCCN2)cc1 (stereo unspecified) | 1.89 | –
7 | c1ccc(-c2c[nH]nn2)cc1 | 1.91 | –
8 | O=c1[nH]nc(-c2ccccc2)c2ccccc12 | 2.48 | –
9 | c1ccc(C2CCNCC2)cc1 | 2.39 | –
10 | c1ccc(-c2nc3ccccc3o2)cc1 | 3.67 | –
11 | O=C1CCC(c2ccccc2)CC1 | 2.3 | –
12 | c1ccc(-c2ccncc2)cc1 | 2.58 | –
13 | O=c1[nH]c2ccccc2cc1-c1ccccc1 | 2.99 | –
14 | c1ccc(-c2nccs2)cc1 | 2.77 | –
15 | O=C1NC(=O)c2cc(-c3ccccc3)ccc21 | 2.97 | –
16 | c1ccc(-c2nc3ccccc3[nH]2)cc1 | 3.3 | –
17 | O=C1C=CC(=O)C(c2ccccc2)=C1 | 1.95 | –
18 | c1ccc(-c2nc[nH]n2)cc1 | 1.54 | –
19 | O=C1Nc2ccccc2CC1c1ccccc1 (stereo unspecified) | 2.93 | –
20 | O=c1[nH]cnc2ccccc12 | – | 0.77
21 | O=C1NC(=O)C(c2ccccc2)C(=O)N1 | -0.17 | –
